Laboratory results taken from PMC7876106 (Scientific Reports, 2021).

Assays:
[1] = tested on: TRF2 interaction with TERRA; test: RNA-ChIP assay of TRF2-TERRA interaction in LOX cells; format: cell-based; settings: Homo sapiens, 24 h, read-out: inhibition of TRF2 interaction with TERRA relative to PP control
Procedure: Mei et al, 2020 TERRA Requires TRF2 GAR Domain […]
blot procedures. Northern blot was performed as previously described with some modifications […]
2. Briefly, 6 µg RNA was denatured in NorthernMax formaldehyde loading dye (Ambion) for 15 […]
min at 65 °C and separated by 1.2% agarose formamide gel in 1X Mops buffer (Ambion) at […]
5V/cm for 2-3 hrs. RNA samples were transferred to GeneScreen Plus blotting membranes […]
(Perkin-Elmer) with 10X SSC and UV cross-linked onto membranes at 125 mJ in UV […]
Stratalinker 2400 (Stratagene). The hybridization was performed using a 32P-labeled TERRA […]
probe in Church buffer (0.5 N Na-phosphate, pH 7.2, 7% SDS, 1 mM EDTA, 1% BSA) for […]
overnight at 50 °C. The blot was washed twice in 0.2 N Na-phosphate, 2% SDS, and 1 mM […]
EDTA at room temperature and once in 0.1 N Na-phosphate, 2% SDS, and 1 mM EDTA at […]
50 °C. Images were collected by phosphor- imager (Amersham Biosciences), and were […]
visualized with a Typhoon 9410 Imager (GE Healthcare) and quantified with ImageQuant TL […]
Genomic DNA was isolated from cells using a genomic DNA purification kit (Promega) and digested with AluI and MboI. Digested genomic DNA was purified by phenol/choloroform extraction and quantified using a Qubit 4 Fluorometer (Thermal Scientific). […] The DNA was transferred to GeneScreen Plus blotting membranes (Perkin-Elmer) and analyzed by Southern blot. […]

[2] = tested on: TeloDNA (unlabelled) (DNA, G4) TTAGGGTTAGGGTTAGGGTTAGGG; test: fluorescence polarization, displacement of TRF2 GAR peptide; settings: 150 mM KCl, NaCl or LiCl (salt not specified); 20 mM HEPES; 20 mM HEPES pH 7.5, room temperature; FITC-TRF2 GAR peptide 10 nM displaced; 5 μM oligo
TERRA in LOX cells = test: TERRA levels by RNA dot blot and Northern blot in LOX cells; format: cell-based, human; settings: 2 μM, 3 days; for accumulation of TERRA as a shorter form: Northern blot
[3] = tested on: TERRA (5'-fluorescein) (RNA, G4) UUAGGGUUAGGGUUAGGGUUAGGG; test: fluorescence polarization; settings: 150 mM KCl, NaCl or LiCl (salt not specified); 20 mM HEPES; 20 mM HEPES pH 7.5, room temperature, tRNA competitor added, 10 nM probe; apparent
G4 TeloDNA = test: FP assay, compound binding to 5′ fluorescein-labeled TeloDNA; settings: 10 nM fluorescein-labeled probe, 3 independent experiments
Procedure: All the nucleic acids, peptides and chemicals were dissolved in buffer containing 20 mM HEPES pH7.5, 150 mM salt (KCl, NaCl, LiCl) at the stock concentration of 1 mM. For peptide and nucleic acid interactions, 25μL of each nucleic acids with a sequential twofold dilutions starting from 50 μM was added into each well of 96-well plate followed by adding 25μL of 10 nM FITC labeled TRF2 peptide. For compounds and nucleic acid interactions, 20μL of each compounds with a sequential twofold dilutions starting from 50 μM were added into each well of 96-well plate followed by adding 5μL of 20 ng/mL tRNA and 25μL of 10 nM FAM labeled nucleic acids. For inhibition assay, 5μL FITC labeled TRF2 GAR peptide (10 nM final concentration) and 10 μL oligos (5 μM final concentration) were mixed, followed by adding 5μL of each compound with a sequential twofold dilutions starting from 50 μM into each well of 384-well plate. All components were mixed thoroughly, and the plate was incubated at room temperature for 1 h before placing in an Envision Plate Reader for reading at 495/520 nm. All data curves were fitted using Prism 8.0.

| SMILES | inhibition at 2 µM [1] [%] | IC50 [2] [µM] | accumulation of TERRA as a shorter form (TERRA in LOX cells) | EC50 [3] [µM] | EC50 (G4 TeloDNA) [µM] | total TERRA levels relative to PP control (TERRA in LOX cells; RNA dot blot and Northern blot) |
| --- | --- | --- | --- | --- | --- | --- |
| CN(C)c1ccc(Nc2c3ccc(NC(=O)CCN4CCCC4)cc3nc3cc(NC(=O)CCN4CCCC4)ccc23)cc1 [BRACO-19] | ~50 | 0.04 | not observed | 7.4 | 3.9 |  |
| CCc1c(C)c2cc3nc(cc4nc(cc5c(CC)c(C)c(cc1[nH]2)n5C)C(C)=C4CCC(=O)O)C(CCC(=O)O)=C3C [NMM, N-methyl mesoporphyrin IX] | ~50 | 1.0 | accumulated as a shorter form | 0.68 | 4.8 | reduced total TERRA levels |
